Measured values as given in patent US20250205259A1, “CLASS OF 7-((FIVE-MEMBERED HETEROCYCLIC)METHYL)-8-CARBOXYLIC ACID-BENZO CYCLIC BORATE DERIVATIVES AND USES THEREOF” (priority 2022, published 2025).
Like-named read-outs stand apart in the source and are kept apart here.

Assays:
Type in all cases: biochemical
KPC-2 = KPC-2 (Klebsiella pneumoniae, UniProt Q9F663); assay: Inhibitory activity on SBL, fluorescent substrate FC-5
OXA-48 = OXA-48 (Klebsiella pneumoniae, UniProt Q6XEC0); assay: as above
CTX-M-14 = CTX-M-14 (Escherichia coli, UniProt Q9L5C7); assay: as above
NDM-1 = NDM-1 (Klebsiella pneumoniae, UniProt C7C422); assay: Inhibitory activity on MBL, fluorescent substrate FC-5
VIM-1 = VIM-1 (Pseudomonas aeruginosa, UniProt A0A0F7KYQ8); assay: as above
VIM-2 = VIM-2 (Escherichia coli, UniProt Q5U7L7); assay: as above
NDM-5 = NDM-5 (Klebsiella pneumoniae, UniProt C7C422, M154L/V88L); assay: as above
IMP-1 = IMP-1 (Serratia marcescens, UniProt P52699); assay: as above
TEM-1 = TEM-1 (Escherichia coli, UniProt P62593); assay: Inhibitory activity on SBL, fluorescent substrate FC-5; settings: for IC50: read-out: Inhibitory activity on SBL TEM-1 (IC50 class)
[1] = salts, read-out: inhibitory activity at a nanomolar-level on KPC-2
[2] = salts, read-out: inhibitory activity at a nanomolar-level on OXA-48
[3] = read-out: Inhibitory activity on SBL KPC-2 (IC50 class)
[4] = read-out: Inhibitory activity on SBL CTX-M-14 (IC50 class)
[5] = read-out: Inhibitory activity on MBL NDM-1 (IC50 class)
[6] = read-out: Inhibitory activity on MBL VIM-1 (IC50 class)
[7] = read-out: Inhibitory activity on MBL VIM-2 (IC50 class)
[8] = read-out: Inhibitory activity on MBL NDM-5 (IC50 class)
[9] = read-out: Inhibitory activity on MBL IMP-1 (IC50 class)
[10] = read-out: Inhibitory activity on SBL OXA-48 (IC50 class)
[11] = VIM-1 and/or VIM-2, read-out: inhibitory activity at a nanomolar-level on VIM-1 and/or VIM-2
[12] = Inhibitory activity on MBL VIM-1 (IC50 class)
[13] = Inhibitory activity on SBL OXA-48 (IC50 class)
[14] = IMP-1 and/or IMP-4, read-out: inhibitory activity at a nanomolar-level on IMP-1 and/or IMP-4
[15] = read-out: inhibitory activity at a nanomolar-level on NDM-1
[16] = read-out: inhibitory activity at a nanomolar-level on NDM-5

Chain of IMP-1 (P52699 19-246 limits assumed): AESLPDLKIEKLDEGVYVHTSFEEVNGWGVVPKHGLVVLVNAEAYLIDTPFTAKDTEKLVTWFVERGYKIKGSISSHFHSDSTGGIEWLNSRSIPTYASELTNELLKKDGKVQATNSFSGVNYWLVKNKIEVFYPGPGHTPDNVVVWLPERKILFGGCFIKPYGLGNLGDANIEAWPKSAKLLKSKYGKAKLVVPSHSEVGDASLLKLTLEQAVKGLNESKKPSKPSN
Chain of KPC-2 (Q9F663 25-293 limits assumed): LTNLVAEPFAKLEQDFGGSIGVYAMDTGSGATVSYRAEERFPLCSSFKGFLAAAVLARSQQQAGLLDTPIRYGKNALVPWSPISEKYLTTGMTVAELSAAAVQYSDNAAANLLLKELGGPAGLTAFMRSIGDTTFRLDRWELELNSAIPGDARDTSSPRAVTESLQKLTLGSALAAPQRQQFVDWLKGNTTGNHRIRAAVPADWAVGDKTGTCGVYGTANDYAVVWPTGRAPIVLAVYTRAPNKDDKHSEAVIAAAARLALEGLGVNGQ
Chain of NDM-1 (C7C422 29-270 limits assumed): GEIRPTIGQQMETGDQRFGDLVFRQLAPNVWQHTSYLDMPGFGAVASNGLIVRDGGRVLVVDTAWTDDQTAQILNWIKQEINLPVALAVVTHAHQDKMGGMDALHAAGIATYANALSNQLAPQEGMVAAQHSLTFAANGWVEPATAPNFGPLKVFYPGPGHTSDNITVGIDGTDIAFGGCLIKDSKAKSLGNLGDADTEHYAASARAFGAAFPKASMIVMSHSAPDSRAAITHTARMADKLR
Chain of TEM-1 (P62593 24-286 limits assumed): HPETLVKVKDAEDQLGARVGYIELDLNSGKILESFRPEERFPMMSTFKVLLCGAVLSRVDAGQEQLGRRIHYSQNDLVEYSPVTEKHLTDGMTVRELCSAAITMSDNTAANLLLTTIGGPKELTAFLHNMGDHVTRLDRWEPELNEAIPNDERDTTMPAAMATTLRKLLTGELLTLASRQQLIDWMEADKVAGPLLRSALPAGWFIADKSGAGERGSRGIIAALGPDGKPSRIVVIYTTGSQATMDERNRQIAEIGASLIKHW
Chain of OXA-48 (Q6XEC0 23-265 limits assumed): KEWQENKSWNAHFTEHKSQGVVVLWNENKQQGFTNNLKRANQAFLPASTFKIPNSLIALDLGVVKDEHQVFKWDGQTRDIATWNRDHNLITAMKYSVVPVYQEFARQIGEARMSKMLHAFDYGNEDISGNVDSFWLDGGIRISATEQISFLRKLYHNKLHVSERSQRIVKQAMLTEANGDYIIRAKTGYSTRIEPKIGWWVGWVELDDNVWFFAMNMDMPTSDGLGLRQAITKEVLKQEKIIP
Chain of NDM-5 (C7C422 29-270 V88L/M154L): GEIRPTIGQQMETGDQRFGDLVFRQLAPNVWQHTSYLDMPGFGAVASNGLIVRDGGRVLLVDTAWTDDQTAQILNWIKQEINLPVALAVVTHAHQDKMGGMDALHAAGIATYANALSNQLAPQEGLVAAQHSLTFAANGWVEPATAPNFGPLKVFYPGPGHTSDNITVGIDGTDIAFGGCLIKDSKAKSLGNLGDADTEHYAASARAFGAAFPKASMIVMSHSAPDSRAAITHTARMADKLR
Chain of CTX-M-14 (Q9L5C7 entry or part of it): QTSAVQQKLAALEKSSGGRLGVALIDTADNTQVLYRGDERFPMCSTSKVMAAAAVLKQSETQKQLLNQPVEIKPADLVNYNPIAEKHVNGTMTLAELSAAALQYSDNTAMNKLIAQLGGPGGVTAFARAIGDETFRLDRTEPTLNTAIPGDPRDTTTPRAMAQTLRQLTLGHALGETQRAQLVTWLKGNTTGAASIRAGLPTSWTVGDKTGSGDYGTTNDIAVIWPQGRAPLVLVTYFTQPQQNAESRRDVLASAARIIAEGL

Compound | IC50 (KPC-2; [1]) [µM] | IC50 (KPC-2; [3]) [µM] | IC50 (CTX-M-14; [4]) [µM] | IC50 (NDM-1; [5]) [µM] | IC50 (VIM-1; [6]) [µM] | IC50 (VIM-2; [7]) [µM] | IC50 (NDM-5; [8]) [µM] | IC50 (IMP-1; [9]) [µM] | IC50 (OXA-48; [10]) [µM] | IC50 (TEM-1) [µM] | other results
NCc1cnn(Cc2ccc3c(c2C(=O)O)OB(O)CC3)c1 [21-phosphoric acid] | < 0.01 |  |  |  |  |  |  |  |  |  | IC50 (OXA-48; [2]): < 0.01 µM
NC1(c2cn(Cc3ccc4c(c3C(=O)O)OB(O)CC4)nn2)CC1 [41-propionic acid] | < 0.01 |  |  |  |  |  |  |  |  |  | 
NCCc1cnn(Cc2ccc3c(c2C(=O)O)OB(O)CC3)c1 [43-maleic acid] | < 0.01 |  |  |  |  |  |  |  |  |  | 
N=C(N)N1Cc2cn(Cc3ccc4c(c3C(=O)O)OB(O)CC4)nc2C1 [58-toluene sulfonic acid] | < 0.01 |  |  |  |  |  |  |  |  |  | IC50 (OXA-48; [2]): < 0.01 µM
NCCc1ccc(-c2cn(Cc3ccc4c(c3C(=O)O)OB(O)CC4)nn2)cc1 [63-tartaric acid] | < 0.01 | < 0.01 |  |  |  |  |  |  |  |  | 
N=C(N)NCc1ccc(-c2cn(Cc3ccc4c(c3C(=O)O)OB(O)CC4)nn2)cc1 [64-citric acid] | < 0.01 |  |  |  |  |  |  |  |  |  | IC50 (OXA-48; [2]): < 0.01 µM
O=C(O)c1c(Cn2ncc3c2CNC3)ccc2c1OB(O)CC2 [66-oxalic acid] | < 0.01 |  |  |  |  |  |  |  |  |  | IC50 (OXA-48; [2]): < 0.01 µM
NCc1cn(Cc2ccc3c(c2C(=O)O)OB(O)CC3)nn1 [Compound 7] |  | 0.01 to 1 | 0.01 to 1 | 1 to 100 | 1 to 100 | 1 to 100 | 1 to 100 | 1 to 100 | 0.01 to 1 | 0.01 to 1 | 
NCCc1cn(Cc2ccc3c(c2C(=O)O)OB(O)CC3)nn1 [Compound 8] |  | 0.01 to 1 | 0.01 to 1 | 1 to 100 | 1 to 100 | 0.01 to 1 | 0.01 to 1 | 1 to 100 | 0.01 to 1 | 0.01 to 1 | IC50 (VIM-1; [11]): < 1 µM
NCc1cnn(Cc2ccc3c(c2C(=O)O)OB(O)CC3)c1 [Compound 21] |  | < 0.01 |  |  |  |  |  |  | < 0.01 |  | 
O=C(O)c1c(Cn2nccn2)ccc2c1OB(O)C1CC21 (centres unmarked) [Compound 27] |  |  |  |  |  |  | 1 to 100 |  |  | 0.01 to 1 | IC50 (KPC-2): < 0.01 µM; IC50 (CTX-M-14): 0.01 to 1 µM; IC50 (NDM-1): 1 to 100 µM; IC50 (VIM-1; [12]): 1 to 100 µM; IC50 (VIM-1; inhibitory activity at a nanomolar-level on VIM-1 and/or VIM-2, text summary, VIM-1 and/or VIM-2): < 1 µM; IC50 (VIM-2): 0.01 to 1 µM; IC50 (IMP-1): 1 to 100 µM; IC50 (OXA-48; [13]): < 0.01 µM
O=C(O)c1c(Cn2ccnn2)ccc2c1OB(O)C1CC21 (centres unmarked) [Compound 28] |  | < 0.01 | 0.01 to 1 | 1 to 100 | 0.01 to 1 | 0.01 to 1 | 1 to 100 | 0.01 to 1 | 0.01 to 1 | 0.01 to 1 | IC50 (VIM-1; [11]): < 1 µM; IC50 (IMP-1; [14]): < 1 µM
C[C@H]1Cc2ccc(Cn3ccnn3)c(C(=O)O)c2OB1O [Compound 29] |  | < 0.01 | 0.01 to 1 | 0.01 to 1 | 0.01 to 1 | 0.01 to 1 | 0.01 to 1 | 0.01 to 1 | 0.01 to 1 | 0.01 to 1 | IC50 (NDM-1; [15]): < 1 µM; IC50 (VIM-1; [11]): < 1 µM; IC50 (NDM-5; [16]): < 1 µM; IC50 (IMP-1; [14]): < 1 µM
CO[C@H]1Cc2ccc(Cn3ccnn3)c(C(=O)O)c2OB1O [Compound 30] |  | < 0.01 | 0.01 to 1 | 0.01 to 1 | 0.01 to 1 | 0.01 to 1 | 0.01 to 1 | 0.01 to 1 | 0.01 to 1 | 0.01 to 1 | IC50 (NDM-1; [15]): < 1 µM; IC50 (VIM-1; [11]): < 1 µM; IC50 (NDM-5; [16]): < 1 µM; IC50 (IMP-1; [14]): < 1 µM
NCCNc1cnn(Cc2ccc3c(c2C(=O)O)OB(O)CC3)c1 [Compound 33] |  | < 0.01 | 0.01 to 1 | 0.01 to 1 | 1 to 100 | 0.01 to 1 | 0.01 to 1 | 1 to 100 | < 0.01 | 0.01 to 1 | IC50 (NDM-1; [15]): < 1 µM; IC50 (NDM-5; [16]): < 1 µM
N=C(N)NCc1cnn(Cc2ccc3c(c2C(=O)O)OB(O)CC3)c1 [Compound 37] |  | < 0.01 | < 0.01 | 0.01 to 1 | 1 to 100 | 0.01 to 1 | 0.01 to 1 | 1 to 100 | < 0.01 | < 0.01 | IC50 (NDM-1; [15]): < 1 µM; IC50 (NDM-5; [16]): < 1 µM
N=C(N)Nc1cnn(Cc2ccc3c(c2C(=O)O)OB(O)CC3)c1 [Compound 38] |  | 0.01 to 1 | 0.01 to 1 | 0.01 to 1 | 1 to 100 | 0.01 to 1 | 0.01 to 1 | 1 to 100 | < 0.01 | 0.01 to 1 | IC50 (NDM-1; [15]): < 1 µM; IC50 (NDM-5; [16]): < 1 µM
NC1(c2cn(Cc3ccc4c(c3C(=O)O)OB(O)CC4)nn2)CC1 [Compound 41] |  | < 0.01 | 0.01 to 1 |  |  | 0.01 to 1 |  |  | 0.01 to 1 | 0.01 to 1 | 
NCCc1cnn(Cc2ccc3c(c2C(=O)O)OB(O)CC3)c1 [Compound 43] |  | < 0.01 |  |  |  |  |  |  |  |  | 
N=C(N)N1CC(c2cn(Cc3ccc4c(c3C(=O)O)OB(O)CC4)nn2)C1 [Compound 49-Na] | < 0.01 |  |  |  |  |  |  |  |  |  | 
O=C(O)c1c(Cn2cc3c(n2)CNC3)ccc2c1OB(O)CC2 [Compound 56-Na] | < 0.01 | < 0.01 | 0.01 to 1 | 0.01 to 1 | 0.01 to 1 | 0.01 to 1 |  | 1 to 100 | < 0.01 | 0.01 to 1 | IC50 (OXA-48; [2]): < 0.01 µM
N=C(N)N1Cc2cn(Cc3ccc4c(c3C(=O)O)OB(O)CC4)nc2C1 [Compound 58] |  | < 0.01 |  |  |  |  |  |  | < 0.01 | < 0.01 | 
NCc1ccc(-c2cn(Cc3ccc4c(c3C(=O)O)OB(O)CC4)nn2)cc1 [Compound 63-Na] | < 0.01 |  |  |  |  |  |  |  |  |  | IC50 (OXA-48; [2]): < 0.01 µM
N=C(N)NCc1ccc(-c2cn(Cc3ccc4c(c3C(=O)O)OB(O)CC4)nn2)cc1 [Compound 64] |  | < 0.01 |  |  |  |  |  |  | < 0.01 |  | inhibitory activity on KPC-2 compared to avibactam (KPC-2; comparison in words): better or comparable; inhibitory activity on CTX-M-14 compared to avibactam (CTX-M-14; comparison in words): better or comparable; inhibitory activity on OXA-48 compared to avibactam (OXA-48; comparison in words): better or comparable; inhibitory activity on TEM-1 compared to avibactam (TEM-1; comparison in words): better or comparable
O=C(O)c1c(Cn2ncc3c2CNC3)ccc2c1OB(O)CC2 [Compound 66] |  | < 0.01 | 0.01 to 1 |  |  |  |  |  | < 0.01 | 0.01 to 1 | 
C[C@]1(Cn2ccnn2)[C@H](C(=O)O)N2C(=O)C[C@H]2S1(=O)=O [Tazobactam, reference compound] |  | 1 to 100 |  | > 100 |  | > 100 | > 100 | > 100 |  |  | IC50 (VIM-1; [12]): > 100 µM; IC50 (OXA-48; [13]): 1 to 100 µM
